Data taken from PMC9623576, “Semisynthesis and Evaluation of Anti-Inflammatory Activity of the Cassane-Type Diterpenoid Taepeenin F and of Some Synthetic Intermediates” (Journal of Natural Products, 2022).
“Also recorded” adds a separate entry of the source.

Columns and labels:
[1] = tested on: RAW 264.7 monocyte/macrophage murine cells; test: MTT growth inhibition on RAW 264.7 cells; format: cell-based; conditions: Mus musculus, RAW264.7, RAW 264.7, MTT; for IC20: 20% growth inhibition; for IC80: 80% growth inhibition
Protocol: A stock solution was frozen and stored at […]. Before the experiments, this solution was diluted in cell-culture medium to the adequate concentrations for each experiment. […] For nitrite assay, subcytotoxic concentrations (3/4IC50, 1/2IC50, and 1/4IC50), were used to ensure that the NO inhibitory potential was not due to a possible cytotoxic effect. The concentrations of 3/4IC50, 1/2IC50, and 1/4IC50 were used for the cell-cycle analysis. All experiments were measured and compared with control (untreated cells after 24, 48, or 72 h of treatment.)
In all experiments, monolayer cells were grown to 80–90% confluence, in sterile cell culture flasks. All cell lines used were purchased from the cell bank of the University of Granada, Spain.
The cytotoxicity assay was performed by the MTT (3-(4,5-dimethylthiazol-2-yl)-2,5-diphenyltetrazolium bromide) method.[21] […] All tested compounds were prepared in fresh growth medium. After 24 h, an additional 100 μL of medium with the corresponding concentrations of products (only medium in the control wells) was added to the corresponding wells, at various final concentrations (0–100 μg/mL). […] After 1.5 h of incubation, formazan was resuspended in 100 μL of DMSO, and each concentration was tested in triplicate.
Cytotoxicity experimental data were fitted to a sigmoidal function (y = ymax/(x/a)^−b) by nonlinear regression. […] Similar analyses were performed to obtain the IC50 of NO production. All data shown here are representative of at least two independent experiments performed in triplicate. All quantitative data were summarized as the mean ± standard deviation (SD).

B16-F10 cells [2] = test: Annexin V-FITC/propidium iodide apoptosis flow cytometry; format: cell-based, murine; conditions: for apoptotic effect: B16-F10, after 24 h of treatment
From the text: Cytometric FACS analysis using annexin V-FITC and PI staining was used to differentiate four cell populations (Figure 5): normal cells (annexin V^– and PI^–), early apoptotic cells (annexin V^+ and PI^–), late apoptotic cells (annexin V^+ and PI^+), and necrotic cells (annexin V^– and PI^+).[33]
To confirm the proapoptotic effect of compounds 16 and 22, annexin V and PI double staining was detected with flow cytometry. An early indicator of apoptosis is the translocation of the membrane phospholipid phosphatidylserine from the cytoplasmic interface to the external surface of the plasmatic membrane. The phospholipid phosphatidylserine that accumulates on the external plasmatic membrane can be detected by annexin V/PI is a fluorescent dye that binds to the nuclei of dead cells. Apoptosis was assessed by flow cytometry using a FACScan (fluorescence-activated cell sorter) flow cytometer (Coulter Corporation, Hialeah, FL, USA).[37],[38] For this assay, 5 × 10^4 B16-F10 cells were plated in 24-well plates with 1.5 mL of medium and incubated for 24 h. […] Cells were collected and resuspended in a binding buffer (10 mM HEPES/NaOH, pH 7.4, 140 mM NaCl, 2.5 mM CaCl2). Annexin V-FITC conjugate (1 μg/mL) was then added and incubated for 15 min at room temperature in darkness. Just before the analysis by flow cytometry, cells were stained with 5 μL of 1 mg/mL PI solution. In each experiment, approximately 10 × 10^3 cells were analyzed, and the experiment was duplicated twice.

B16-F10 cells [3] = test: Mitochondrial membrane potential, Rh123/PI flow cytometry; format: cell-based, murine; conditions: B16-F10, 72 h; for changes in mitochondrial membrane potential (MMP): IC50 and IC80 concentrations, Rh123/IP
From the text: In addition, the loss of part of MMP can be related to the secondary activation of the intrinsic apoptotic pathway as a final event in the extrinsic apoptosis mechanism. Further molecular studies will be necessary to confirm these conclusions.
The electrochemical gradient across the mitochondrial membrane was investigated by analytical flow cytometry, using dihydrorhodamine (DHR). DHR is oxidized in contact with living cells, forming a highly fluorescent product called rhodamine (Rh 123). The emitted fluorescence can be monitored by fluorescence spectroscopy using excitation and emission wavelengths of 500 and 536 nm, respectively.[37]−[39] […] After treatment, the culture medium was renewed by adding fresh medium with DHR to a final concentration of […]. Cells were incubated for 1 h at 37 °C in an atmosphere of 5% CO2 and 95% humidity and subsequently washed and resuspended in PBS with 5 μg/mL of PI. The fluorescence intensity was measured using a FACScan flow cytometer (fluorescence-activated cell sorter). The experiments were performed three times with two replicates per assay.

[4] = B16-F10, 48 h, IC50 concentration
[5] = B16-F10, 48 h, IC80 concentration
[6] = B16-F10, 72 h, IC50 concentration
[7] = B16-F10, 72 h, IC80 concentration

Row | SMILES | IC50 [1] | IC20 [1] | IC80 [1] | early apoptosis (Q4, annexin V+ PI-) (B16-F10 cells [2]; [4]) | late apoptosis (Q2, annexin V+ PI+) (B16-F10 cells [2]; [4]) | total apoptosis (B16-F10 cells [2]; [4]) | early apoptosis (Q4, annexin V+ PI-) (B16-F10 cells [2]; [5]) | late apoptosis (Q2, annexin V+ PI+) (B16-F10 cells [2]; [5]) | total apoptosis (B16-F10 cells [2]; [5]) | early apoptosis (Q4, annexin V+ PI-) (B16-F10 cells [2]; [6]) | late apoptosis (Q2, annexin V+ PI+) (B16-F10 cells [2]; [6]) | total apoptosis (B16-F10 cells [2]; [6]) | early apoptosis (Q4, annexin V+ PI-) (B16-F10 cells [2]; [7]) | late apoptosis (Q2, annexin V+ PI+) (B16-F10 cells [2]; [7]) | total apoptosis (B16-F10 cells [2]; [7]) | apoptotic effect (B16-F10 cells [2]) | changes in mitochondrial membrane potential (MMP) (B16-F10 cells [3]) | population of Rh123 negative cells versus control untreated cells (B16-F10 cells [3]; IC80 concentration)
1 | COC(=O)[C@]1(C)CCC[C@@]2(C)[C@H]1CC=C1C(C)=C(C(C)C)C(=O)C[C@@H]12 [Compound 16, (1R,4aR,10aR)-Methyl 7-isopropyl-1,4a,8-trimethyl-6-oxo-1,2,3,4,4a,4b,5,6,10,10a-decahydrophenanthrene-1-carboxylate] | 33.1 ± 3.62 µM | 30.1 ± 0.49 µM | 33.81 ± 0.08 µM | 3.73% | 9.40% | 13.13% | 12.06% | 14.53% | 26.6% | 0.06% | 7.63% | 7.7% | 27.63% | 21.13% | 48.76% | did not exert a significant effect | did not cause any loss of the mitochondrial membrane potential; also recorded: did not produce any changes in MMP | 
2 | COC(=O)[C@]1(C)CCC[C@]2(C)c3cc(O)c(C=O)c(C)c3CC[C@@H]12 [Compound 21, (1R,4aS,10aR)-Methyl 7-formyl-6-hydroxy-1,4a,8-trimethyl-1,2,3,4,4a,9,10,10a-octahydrophenanthrene-1-carboxylate] | 21.1 ± 0.96 µM | 17.8 ± 1.34 µM | 25.3 ± 0.58 µM | 6.93% | 18.30% | 25.23% | 5.73% | 27.13% | 32.86% | 5.33% | 17.03% | 22.36% | 23.56% | 17.66% | 41.23% | did not exert a significant effect | partial loss of the MMP | higher
